Measured values from BindingDB's records for doi:10.1021/jm030905y (Vrije Universiteit, 2003).
pKi: −log10 of the molar value.

Target: Histamine H4 receptor (Homo sapiens, UniProt Q9H3N8)
Experiment: Inhibitory activity measured by [3H]- N alpha- methyl-histamine binding to membranes of SK-N-MC cells expressing the human Histamine H4 receptor

Sequence of Histamine H4 receptor (Q9H3N8 whole entry): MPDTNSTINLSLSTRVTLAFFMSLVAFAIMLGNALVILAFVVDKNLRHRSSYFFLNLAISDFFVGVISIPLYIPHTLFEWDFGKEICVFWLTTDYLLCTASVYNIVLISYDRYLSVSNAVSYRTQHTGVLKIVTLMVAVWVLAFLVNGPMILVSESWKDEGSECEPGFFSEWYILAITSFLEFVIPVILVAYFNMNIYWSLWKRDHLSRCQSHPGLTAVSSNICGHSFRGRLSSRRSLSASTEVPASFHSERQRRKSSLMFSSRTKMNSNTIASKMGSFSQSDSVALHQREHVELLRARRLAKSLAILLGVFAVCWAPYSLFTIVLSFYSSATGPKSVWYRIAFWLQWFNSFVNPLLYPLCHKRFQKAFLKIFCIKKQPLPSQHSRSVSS

Row | SMILES | pKi
1 | C[C@@H](N)Cc1c[nH]cn1 [CHEBI:73337] | 6.62
2 | NCCCc1c[nH]cn1 [Homohistamine] | 7.46
